Assay results: BindingDB's records for doi:10.7270/Q2TX3CTT (Broad Institute, 2010)

Each compound was assayed against Glycogen synthase kinase-3 beta (Homo sapiens, UniProt P49841) (assay: concentration-response blocking of human GSK3B – biochemical, luminescence, cell-free homogeneous, retest, dose response (AID 434954)).
Chain of Glycogen synthase kinase-3 beta (P49841 whole entry): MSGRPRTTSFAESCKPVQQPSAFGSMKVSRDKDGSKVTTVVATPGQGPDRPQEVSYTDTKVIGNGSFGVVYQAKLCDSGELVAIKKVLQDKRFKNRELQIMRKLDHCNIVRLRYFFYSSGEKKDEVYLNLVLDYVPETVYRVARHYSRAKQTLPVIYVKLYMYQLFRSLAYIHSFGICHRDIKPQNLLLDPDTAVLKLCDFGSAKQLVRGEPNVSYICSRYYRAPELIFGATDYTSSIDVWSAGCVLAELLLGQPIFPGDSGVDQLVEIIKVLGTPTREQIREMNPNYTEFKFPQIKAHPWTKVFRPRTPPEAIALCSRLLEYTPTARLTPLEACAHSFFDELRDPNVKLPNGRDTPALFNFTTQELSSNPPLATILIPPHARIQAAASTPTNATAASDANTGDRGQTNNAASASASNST

Point of comparison: c1cncc(-c2nc(NCCCn3ccnc3)c3ccccc3n2)c1 [SMR000384722], EC50 30.7 µM. Against it:
- COC(=O)C(C)Sc1ccc2nnc(-c3ccc(F)cc3)n2n1 (centres undefined) [MLS000093331] — 2.6-fold lower, 11.9 µM
- Oc1ccccc1CN=Nc1nnn[nH]1 [(6E)-6-[(2H-tetrazol-5-ylhydrazo)methylidene]-1-cyclohexa-2,4-dienone] — higher, > 300 µM
- Nc1ccccc1Nc1cc(-c2ccccc2)[nH]n1 [2-N-(5-phenyl-1H-pyrazol-3-yl)benzene-1,2-diamine] — higher, > 300 µM
- CCCCn1nc(NC(=O)COC)c2cc3cc(OC)ccc3nc21 [N-(1-butyl-6-methoxy-3-pyrazolo[3,4-b]quinolinyl)-2-methoxyacetamide] — higher, > 300 µM
- CC1(C)CC(=O)C=C(Nc2ccc(F)cc2)C1 [MLS000070279] — higher, > 300 µM
- CSc1nc(NCCCO)c2c3c(sc2n1)CN(C)CC3 — within 1.5-fold, 29.8 µM
- CCC(=O)Nc1ccc(Nc2nc(C)c([N+](=O)[O-])c(Nc3ccc(NC(=O)CC)cc3)n2)cc1 [N,N'-[(6-methyl-5-nitro-2,4-pyrimidinediyl)bis(imino-4,1-phenylene)]dipropanamide] — higher, > 300 µM
- COCCOc1ccc(C(F)(F)F)cc1NC(=O)COC(=O)c1cc[n+]([O-])cc1 [[2-[2-(2-methoxyethoxy)-5-(trifluoromethyl)anilino]-2-oxoethyl] 1-oxidopyridin-1-ium-4-carboxylate] — higher, > 300 µM
- CCOC(=O)c1cnc2c(OC)cccc2c1N1CCN(c2ccc(OC)cc2)CC1 — higher, > 300 µM
- O=C1NC(=O)N(CCc2ccc(F)cc2)C(=O)C1=CNN1CCCCC1 [1-[2-(4-Fluoro-phenyl)-ethyl]-5-[1-(piperidin-1-ylamino)-meth-(Z)-ylidene]-pyrimidine-2,4,6-trione] — higher, > 300 µM
- COCCNc1nc(N)c([N+](=O)[O-])c(Nc2ccc(F)cc2)n1 — higher, > 300 µM
- C/C(C=NNC(=O)c1nnn(-c2nonc2N)c1CN1CCCCC1)=C\c1ccccc1 [1-(4-azanyl-1,2,5-oxadiazol-3-yl)-N-[[(E)-2-methyl-3-phenyl-prop-2-enylidene]amino]-5-(piperidin-1-ylmethyl)-1,2,3-triazole-4-carboxamide] — within 1.5-fold, 28.6 µM
- CC(Cc1c[nH]c2ccccc12)NC(=O)OCCCl (centres undefined) — higher, > 300 µM
- CC(=O)N1CCc2c(sc(NC(=O)CCS(=O)(=O)c3ccccc3)c2C(N)=O)C1 — 4-fold higher, 122 µM
- CCCCCCNC(=O)C(C(=O)OCC)C1CCCCC1 (centres undefined) [ethyl 2-cyclohexyl-3-(hexylamino)-3-oxidanylidene-propanoate] — higher, > 300 µM
- COc1cccc(C(=O)NNC(=O)c2ccccc2)c1 — higher, > 300 µM
- CCc1ccc(S(=O)(=O)Nc2ccc(O)c3c(=O)cc(-c4ccccc4Cl)oc23)cc1 [SMR000465243] — higher, > 300 µM
- O=C(CSc1ccc2nnc(-c3ccc(F)cc3)n2n1)NCc1ccco1 [2-[[3-(4-fluorophenyl)-[1,2,4]triazolo[4,3-b]pyridazin-6-yl]thio]-N-(2-furanylmethyl)acetamide] — within 1.5-fold, 39.9 µM
- CN(Cc1nc2c(s1)CCCC2)C(=O)CCc1nnc(-c2ccc3c(c2)OCO3)o1 [SMR000318717] — 1.6-fold higher, 50 µM
- O=C(CN1C(=O)CCC1=O)Nc1ccc2c3c(cccc13)CC2 [N-(1,2-dihydroacenaphthylen-5-yl)-2-(2,5-dioxo-1-pyrrolidinyl)acetamide] — higher, > 300 µM
- O=C(CS(=O)(=O)c1ccccc1)c1cc2ccccc2oc1=O [3-[2-(phenylsulfonyl)ethanoyl]chromen-2-one] — higher, > 300 µM
- Cc1ccc(S(=O)(=O)N(C)CC(=O)N2CCCc3ccccc32)cc1 [SMR000076264] — higher, > 300 µM
- CCc1nnc(NC(=O)c2cccc(OC)c2)s1 [MLS000104553] — higher, > 300 µM
- COc1ccc(-c2c(N)nnc3c2[nH]c2ccccc23)cc1OC — higher, > 300 µM
- O=C1CCCC2=Nc3ncnn3C(c3cccs3)C12 (centres undefined) [9-thiophen-2-yl-5,6,7,9-tetrahydro-1H-[1,2,4]triazolo[5,1-b]quinazolin-8-one] — higher, > 300 µM
- CCOC(=O)C1C(C)=Nc2ncnn2C1c1cc(Br)ccc1F (centres undefined) [ethyl 7-(5-bromo-2-fluorophenyl)-5-methyl-1,7-dihydro-[1,2,4]triazolo[1,5-a]pyrimidine-6-carboxylate] — within 1.5-fold, 24 µM
- CC(C)=CCc1c(O)cc2c(c1O)C(=O)CC(c1ccc(O)cc1)O2 (centres undefined) [2-(4-hydroxyphenyl)-6-(3-methylbut-2-enyl)-5,7-bis(oxidanyl)-2,3-dihydrochromen-4-one] — higher, > 300 µM
- N#Cc1c(O)nc(SCC(=O)c2cccs2)nc1-c1cccs1 [6-oxo-2-{[2-oxo-2-(2-thienyl)ethyl]sulfanyl}-4-(2-thienyl)-1,6-dihydro-5-pyrimidinecarbonitrile] — higher, > 300 µM
- COc1ccc(C2CC(=O)N3CN(c4ccc(C)c(Cl)c4)CSC3=C2C#N)cc1 (centres undefined) — higher, > 300 µM
- Cc1ccnc(NC(=O)c2ccc([N+](=O)[O-])s2)c1 [N-(4-methylpyridin-2-yl)-5-nitro-thiophene-2-carboxamide] — higher, > 300 µM
- Nc1nonc1-n1nnc(C(=O)NN=Cc2ccccc2Cl)c1CN1CCOCC1 — 2-fold higher, 60.5 µM
- CC1Cc2cc(-c3csc(NC(=O)Cc4ccccc4)n3)ccc2N1S(C)(=O)=O (centres undefined) [N-[4-(1-Methanesulfonyl-2-methyl-2,3-dihydro-1H-indol-5-yl)-thiazol-2-yl]-2-phenyl-acetamide] — higher, > 300 µM
- O=C(NC1CCC(C(=O)O)CC1)OCc1ccccc1 (centres undefined) [4-(phenylmethoxycarbonylamino)cyclohexane-1-carboxylic acid] — higher, > 300 µM
- CC(=NNC(=S)Nc1c(C)cccc1C)c1cc2ccccc2o1 [SMR000260555] — higher, > 300 µM
- O=[N+]([O-])c1ccc(Cl)cc1NCCCN1CCOCC1 — higher, > 300 µM
- CCOC(=O)c1sc(Nc2ccccc2)nc1C — higher, > 300 µM
- COc1cc2c(cc1O)C[C@H]1NCCc3cc4c(c-2c31)OCO4 [SMR000156298] — 1.9-fold lower, 16.3 µM
- COCCCNC(=O)c1cccn2c(=O)c3cc4ccccc4cc3nc12 [N-(3-methoxypropyl)-12-oxidanylidene-12H-benzo[g]pyrido[2,1-b]quinazoline-4-carboxamide] — 58-fold lower, 0.531 µM
- N#CCCn1cc(CN=O)c(-c2ccc(-c3ccccc3)cc2)n1 [3-[4-(hydroxyiminomethyl)-3-(4-phenylphenyl)pyrazol-1-yl]propanenitrile] — higher, > 300 µM
- Cc1ccc(N2CCN(C(=O)N3CCOCC3)CC2)c(C)c1 [[4-(2,4-dimethylphenyl)piperazin-1-yl]-morpholin-4-ylmethanone] — higher, > 300 µM
- COc1ccc(N(CN2C(=O)C3CC=CCC3C2=O)C(=O)c2ccco2)cc1 (centres undefined) [N-[(1,3-dioxo-3a,4,7,7a-tetrahydroisoindol-2-yl)methyl]-N-(4-methoxyphenyl)-2-furancarboxamide] — higher, > 300 µM
- Cc1ccc(-n2c(C)nc3c(cnn3-c3ccc(F)cc3)c2=O)cc1C [SMR000026457] — higher, > 300 µM
- Cc1ccc(OCC(=O)N/N=C/c2ccc(O)c([N+](=O)[O-])c2)c([N+](=O)[O-])c1 [SMR000312577] — higher, > 300 µM
- N#Cc1c(N)nc(C(C#N)C#N)c(C#N)c1-c1ccccc1 — 1.6-fold lower, 19.2 µM
- O=c1cc(-c2ccncc2)oc2ccccc12 [2-(4-pyridyl)chromone] — 1.7-fold lower, 17.9 µM
- CS(=O)(=O)c1ccc2nc(NC(=O)CN3CCN(Cc4ccccc4)CC3)sc2c1 [MLS000064538] — higher, > 300 µM
- CCOc1cc(C2c3c(n[nH]c3C)N=C3CC(C)(C)CC(=O)C32)ccc1O (centres undefined) [MLS000736418] — 9.2-fold lower, 3.32 µM
- c1csc(C2=Nn3c(nnc3-c3ccncc3)SC2)c1 — 42-fold lower, 0.735 µM
- COc1ccc2c(C)c(CC(=O)N3CCN(C(=O)C4COc5ccccc5O4)CC3)c(=O)oc2c1 (centres undefined) — higher, > 300 µM
- Nc1nonc1-n1nnc(C(=O)NN=Cc2ccc(Cl)cc2Cl)c1CN1CCCCC1 [MLS000950038] — higher, > 300 µM
- Cc1ccc(Nc2nc(N)c([N+](=O)[O-])c(NCc3ccco3)n2)cc1 — 3.3-fold lower, 9.2 µM
- CCc1cc(C(=O)c2ccc(OC)cc2)c(NC(=O)CN2CCN(C)CC2)s1 [N-[5-ethyl-3-(4-methoxyphenyl)carbonyl-thiophen-2-yl]-2-(4-methylpiperazin-1-yl)ethanamide] — higher, > 300 µM
- CCN1C(=O)/C(=N\NC(=O)C(O)c2ccccc2)c2ccccc21 (centres undefined) [SMR000414657] — within 1.5-fold, 32.4 µM
- N#CC(C#N)=Cc1cc2ccccc2nc1N1CCOCC1 [2-[(2-morpholin-4-ylquinolin-3-yl)methylidene]propanedinitrile] — higher, > 300 µM
- CC(=O)Nc1ccc(C(=O)OCCCOC(=O)c2ccc(NC(C)=O)cc2)cc1 — higher, > 300 µM
- O=C(c1ccncc1)N1CCN(C(=O)c2ccco2)CC1 [MLS000066790] — higher, > 300 µM
- O=c1cc(-c2ccccc2Cl)oc2c(NS(=O)(=O)c3ccccc3C(F)(F)F)ccc(O)c12 — higher, > 300 µM
- COc1ccccc1N(CC(=O)N1CCc2ccccc2C1)S(C)(=O)=O [N-[2-(3,4-dihydro-1H-isoquinolin-2-yl)-2-oxoethyl]-N-(2-methoxyphenyl)methanesulfonamide] — higher, > 300 µM
- COc1ccc(Nc2nc(N)c([N+](=O)[O-])c(NC3CCCCC3)n2)cc1 — higher, > 300 µM
- OCC1(Cc2ccccc2)CCN(Cc2ccc(-c3ccco3)cc2)CC1 [[1-[[4-(2-furanyl)phenyl]methyl]-4-(phenylmethyl)-4-piperidinyl]methanol] — higher, > 300 µM
- CCc1ccc(C2NC(=S)N=C3CC(C)(C)CC(=O)C32)cc1 (centres undefined) [MLS000720309] — higher, > 300 µM
- Cn1nc(-c2ccccn2)nc2c(=O)n(C)c(=O)nc1-2 [1,6-dimethyl-3-(2-pyridinyl)pyrimido[5,4-e][1,2,4]triazine-5,7(1H,6H)-dione] — 1.5-fold higher, 46.2 µM
- COCCn1c(SCC(=O)Nc2ccc(Cl)cn2)nc2ccccc21 [N-(5-chloropyridin-2-yl)-2-[1-(2-methoxyethyl)benzimidazol-2-yl]sulfanylacetamide] — 8-fold lower, 3.82 µM
- COc1ccc(C2C3=C(CC(C)(C)CC3=O)N=C(C)C2C#N)cc1 (centres undefined) [4-(4-methoxyphenyl)-2,7,7-trimethyl-5-oxidanylidene-1,4,6,8-tetrahydroquinoline-3-carbonitrile] — higher, > 300 µM
- CCOC(=O)c1c(S(=O)(=O)NCC(=O)NCc2ccc(C)cc2)c(C)n(C)c1C [ethyl 1,2,5-trimethyl-4-[[2-[(4-methylphenyl)methylamino]-2-oxoethyl]sulfamoyl]pyrrole-3-carboxylate] — higher, > 300 µM
- Nc1nc(NCCN2CCOCC2)nc(NCc2ccccc2)c1[N+](=O)[O-] [SMR000434816] — within 1.5-fold, 26.3 µM
- NC1=N/C(=N\c2ccccc2)c2ccccc21 [MLS000057025] — higher, > 300 µM
- OC(CNc1nc(-c2cccnc2)nc2ccccc12)c1ccccc1 (centres undefined) [SMR000592049] — higher, > 300 µM
